Our source for the EC50 and IC50 values is US20250034136A1 (Nimbus Wadjet, Inc., priority 2023, published 2025).

Each structure is given as a SMILES string.

Test [1] has as its system p21 induction in HCT116 cells. Briefly: p21 induction in HCT116 cells. The class given is cell-based. The note with it: Homo sapiens, HCT-116, 24 h, HCT116 cells, 24 h compound incubation; read-out: P21_EC50. The gist of the method: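 EC50 from non-linear curve fit of p21 immunofluorescence (800 nm), with GAPDH (700 nm) read alongside. DMSO and a reference WRN inhibitor served as low and high controls. Cells (2,000/well) got 11 compound concentrations in duplicate for 24 h at 37 °C.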

The target in test [2] is WRN (BV08), human Werner helicase (Uniprot Q14191, amino acids 517-1235 with L1074F point mutation) (Homo sapiens (Human), UniProt Q14191, L1074F). The test can be described thus: WRN (BV08) ADP-Glo assay. The class given is biochemical. As to conditions: class symbols A-E, read-out: ADP-Glo_hWRN_IC50.
Sequence of WRN (BV08), human Werner helicase (Uniprot Q14191, amino acids 517-1235 with L1074F point mutation) (Q14191 other isoform, or with tags, fused parts or gaps L1074F (already in the parent)): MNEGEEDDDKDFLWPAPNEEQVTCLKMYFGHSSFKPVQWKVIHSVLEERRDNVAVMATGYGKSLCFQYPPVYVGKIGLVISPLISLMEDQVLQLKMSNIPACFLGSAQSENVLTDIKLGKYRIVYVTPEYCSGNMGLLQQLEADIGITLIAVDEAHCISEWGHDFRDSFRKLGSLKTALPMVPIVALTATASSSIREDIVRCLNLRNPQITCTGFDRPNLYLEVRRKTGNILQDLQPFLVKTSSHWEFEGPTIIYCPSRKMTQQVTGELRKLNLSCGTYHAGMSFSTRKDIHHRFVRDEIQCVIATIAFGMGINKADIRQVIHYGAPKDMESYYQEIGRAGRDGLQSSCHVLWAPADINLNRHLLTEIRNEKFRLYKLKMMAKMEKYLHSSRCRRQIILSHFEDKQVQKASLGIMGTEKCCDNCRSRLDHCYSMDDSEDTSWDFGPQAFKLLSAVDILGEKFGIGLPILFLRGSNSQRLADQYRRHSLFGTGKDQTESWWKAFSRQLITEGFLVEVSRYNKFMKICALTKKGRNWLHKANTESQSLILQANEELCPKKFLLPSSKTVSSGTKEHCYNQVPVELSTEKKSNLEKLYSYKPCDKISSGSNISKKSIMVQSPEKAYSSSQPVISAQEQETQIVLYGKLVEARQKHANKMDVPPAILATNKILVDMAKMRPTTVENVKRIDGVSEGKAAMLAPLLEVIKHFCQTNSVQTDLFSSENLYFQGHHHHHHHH

Take `CCc1c(N2CCN(C(=O)c3ncnc(C)c3O)CC2)c(=O)c2nc(/C=C3/CCOC3)cnc2n1CC(=O)Nc1ccc(C(F)(F)F)cc1Cl` [I-35, N-(2-chloro-4-(trifluoromethyl)phenyl)-2-(2-((dihydrofuran-3(2H)-ylidene)methyl)-6-ethyl-7-(4-(5-hydroxy-6-methylpyrimidine-4-carbonyl)piperazin-1-yl)-8-oxopyrido[2,3-b]pyrazin-5(8H)-yl)acetamide]: the EC50 in test [1] is 2 to 5 µM. Also, the IC50 in test [2] lay within 5 to 50 nM.

With `CCc1c(N2CCN(C(=O)c3ncnc(C)c3O)CC2)c(=O)c2nc(C=C3CCOCC3)cnc2n1CC(=O)Nc1ccc(C(F)(F)F)cc1Cl` [I-36, N-(2-chloro-4-(trifluoromethyl)phenyl)-2-(6-ethyl-7-(4-(5-hydroxy-6-methylpyrimidine-4-carbonyl)piperazin-1-yl)-8-oxo-2-((tetrahydro-4H-pyran-4-ylidene)methyl)pyrido[2,3-b]pyrazin-5(8H)-yl)acetamide], the EC50 in test [1] was 2 to 5 µM. Moreover, the IC50 in test [2] lay in the range of 5 to 50 nM.

As for `CCc1c(N2CCN(C(=O)c3ncnc(C)c3O)CC2)c(=O)c2nc(C=C(C)C)cnc2n1CC(=O)Nc1ccc(C(F)(F)F)cc1Cl` [I-37, N-(2-chloro-4-(trifluoromethyl)phenyl)-2-(6-ethyl-7-(4-(5-hydroxy-6-methylpyrimidine-4-carbonyl)piperazin-1-yl)-2-(2-methylprop-1-en-1-yl)-8-oxopyrido[2,3-b]pyrazin-5(8H)-yl)acetamide], the EC50 in test [1] was less than 0.5 µM. Moreover, the IC50 in test [2] was not above 5 nM.

Turning to `CCc1c(N2CCN(C(=O)c3ncnc(C)c3O)CC2)c(=O)c2nc(C=C3CCC3)cnc2n1CC(=O)Nc1ccc(C(F)(F)F)cc1Cl` [I-38, N-(2-chloro-4-(trifluoromethyl)phenyl)-2-(2-(cyclobutylidenemethyl)-6-ethyl-7-(4-(5-hydroxy-6-methylpyrimidine-4-carbonyl)piperazin-1-yl)-8-oxopyrido[2,3-b]pyrazin-5(8H)-yl)acetamide], the EC50 in test [1] is less than 0.5 µM. Moreover, the IC50 in test [2] was not above 5 nM.

For `CCc1c(N2CCN(C(=O)c3ncnc(C)c3O)CC2)c(=O)c2nc(CCO)cnc2n1CC(=O)Nc1ccc(C(F)(F)F)cc1Cl` [I-41, N-(2-chloro-4-(trifluoromethyl)phenyl)-2-(6-ethyl-7-(4-(5-hydroxy-6-methylpyrimidine-4-carbonyl)piperazin-1-yl)-2-(2-hydroxyethyl)-8-oxopyrido[2,3-b]pyrazin-5(8H)-yl)acetamide], the EC50 in test [1] was more than 5 µM. For the same compound, the IC50 in test [2] fell in the range of 100 to 500 nM.

For `CCc1c(N2CCN(C(=O)c3ncnc(C)c3O)CC2)c(=O)c2nc(N3CCCCC3)cnc2n1CC(=O)Nc1ccc(C(F)(F)F)cc1Cl` [I-42, N-(2-chloro-4-(trifluoromethyl)phenyl)-2-(6-ethyl-7-(4-(5-hydroxy-6-methylpyrimidine-4-carbonyl)piperazin-1-yl)-8-oxo-2-(piperidin-1-yl)pyrido[2,3-b]pyrazin-5(8H)-yl)acetamide], the EC50 in test [1] lay in the range of 2 to 5 µM. Also, the IC50 in test [2] lay within 5 to 50 nM.

`CCc1c(N2CCN(C(=O)c3ncnc(C)c3O)CC2)c(=O)c2ncc(Cl)nc2n1CC(=O)Nc1ccc(C(F)(F)F)cc1Cl` [I-43, N-(2-chloro-4-(trifluoromethyl)phenyl)-2-(3-chloro-6-ethyl-7-(4-(5-hydroxy-6-methylpyrimidine-4-carbonyl)piperazin-1-yl)-8-oxopyrido[2,3-b]pyrazin-5(8H)-yl)acetamide]: the EC50 in test [1] is more than 5 µM. The IC50 in test [2] fell in the range of 100 to 500 nM.

Regarding `CCc1c(N2CCN(C(=O)c3ncnc(C)c3O)CC2)c(=O)c2nc(N3CC(C)(O)C3)cnc2n1CC(=O)Nc1ccc(C(F)(F)F)cc1Cl` [I-44, N-(2-chloro-4-(trifluoromethyl)phenyl)-2-(6-ethyl-2-(3-hydroxy-3-methylazetidin-1-yl)-7-(4-(5-hydroxy-6-methylpyrimidine-4-carbonyl)piperazin-1-yl)-8-oxopyrido[2,3-b]pyrazin-5(8H)-yl)acetamide], in test [1], the EC50 is more than 5 µM. Further, in test [2], the IC50 was in the range of 5 to 50 nM.

Turning to `CCc1c(N2CCN(C(=O)c3ncnc(C)c3O)CC2)c(=O)c2nc(N3CC(O)C3)cnc2n1CC(=O)Nc1ccc(C(F)(F)F)cc1Cl` [I-45, N-(2-chloro-4-(trifluoromethyl)phenyl)-2-(6-ethyl-7-(4-(5-hydroxy-6-methylpyrimidine-4-carbonyl)piperazin-1-yl)-2-(3-hydroxyazetidin-1-yl)-8-oxopyrido[2,3-b]pyrazin-5(8H)-yl)acetamide], the EC50 in test [1] was more than 5 µM. Further, the IC50 in test [2] was in the range of 5 to 50 nM.

Turning to `CCc1c(N2CCN(C(=O)c3ncnc(C)c3O)CC2)c(=O)c2nccnc2n1CC(=O)Nc1ccc(C(F)(F)F)cc1Cl` [I-46, N-(2-chloro-4-(trifluoromethyl)phenyl)-2-(6-ethyl-7-(4-(5-hydroxy-6-methylpyrimidine-4-carbonyl)piperazin-1-yl)-8-oxopyrido[2,3-b]pyrazin-5(8H)-yl)acetamide], the EC50 in test [1] is more than 5 µM. Also, the IC50 in test [2] is 5 to 50 nM.

With `CCc1c(N2CCN(C(=O)c3ncnc(C)c3O)CC2)c(=O)c2nc(N3CCC(C)(O)C3)cnc2n1CC(=O)Nc1ccc(C(F)(F)F)cc1Cl` (centres unmarked) [I-47, N-(2-chloro-4-(trifluoromethyl)phenyl)-2-(6-ethyl-2-(3-hydroxy-3-methylpyrrolidin-1-yl)-7-(4-(5-hydroxy-6-methylpyrimidine-4-carbonyl)piperazin-1-yl)-8-oxopyrido[2,3-b]pyrazin-5(8H)-yl)acetamide], in test [1], the EC50 was more than 5 µM. Besides, the IC50 in test [2] is 5 to 50 nM.

As for `CCc1c(N2CCN(C(=O)c3ncnc(C)c3O)CC2)c(=O)c2nc(C(=O)N(C)C)cnc2n1CC(=O)Nc1ccc(C(F)(F)F)cc1Cl` [I-48, 5-(2-((2-chloro-4-(trifluoromethyl)phenyl)amino)-2-oxoethyl)-6-ethyl-7-(4-(5-hydroxy-6-methylpyrimidine-4-carbonyl)piperazin-1-yl)-N,N-dimethyl-8-oxo-5,8-dihydropyrido[2,3-b]pyrazine-2-carboxamide], the EC50 in test [1] is more than 5 µM. Further, the IC50 in test [2] was 100 to 500 nM.

For `CCc1c(N2CCN(C(=O)c3ncnc(C)c3O)CC2)c(=O)c2nc(CN3CCOCC3)cnc2n1CC(=O)Nc1ccc(C(F)(F)F)cc1Cl` [I-49, N-(2-chloro-4-(trifluoromethyl)phenyl)-2-(6-ethyl-7-(4-(5-hydroxy-6-methylpyrimidine-4-carbonyl)piperazin-1-yl)-2-(morpholinomethyl)-8-oxopyrido[2,3-b]pyrazin-5(8H)-yl)acetamide], the EC50 in test [1] is more than 5 µM. The IC50 in test [2] was 50 to 100 nM.

In the case of `CCc1c(N2CCN(C(=O)c3ncnc(C)c3O)CC2)c(=O)c2nc(C(N)=O)cnc2n1CC(=O)Nc1ccc(C(F)(F)F)cc1Cl` [I-50, 5-(2-((2-chloro-4-(trifluoromethyl)phenyl)amino)-2-oxoethyl)-6-ethyl-7-(4-(5-hydroxy-6-methylpyrimidine-4-carbonyl)piperazin-1-yl)-8-oxo-5,8-dihydropyrido[2,3-b]pyrazine-2-carboxamide], the EC50 in test [1] is more than 5 µM. Further, the IC50 in test [2] was 50 to 100 nM.

As for `CCc1c(N2CCN(C(=O)c3c(O)ccnc3OC)CC2)c(=O)c2nc(N(C)C)cnc2n1CC(=O)Nc1ccc(C(F)(F)F)cc1Cl` [I-51, N-(2-chloro-4-(trifluoromethyl)phenyl)-2-(2-(dimethylamino)-6-ethyl-7-(4-(4-hydroxy-2-methoxynicotinoyl)piperazin-1-yl)-8-oxopyrido[2,3-b]pyrazin-5(8H)-yl)acetamide], in test [1], the EC50 is less than 0.5 µM. Moreover, in test [2], the IC50 lay in the range of 5 to 50 nM.

Take `CCc1c(N2CCN(C(=O)c3ncnc(C)c3O)CC2)c(=O)c2nc(N3CCOCC3)cnc2n1CC(=O)Nc1ccc(C(F)(F)F)cc1Cl` [I-52, N-(2-chloro-4-(trifluoromethyl)phenyl)-2-(6-ethyl-7-(4-(5-hydroxy-6-methylpyrimidine-4-carbonyl)piperazin-1-yl)-2-morpholino-8-oxopyrido[2,3-b]pyrazin-5(8H)-yl)acetamide]: the EC50 in test [1] is more than 5 µM. The IC50 in test [2] fell in the range of 5 to 50 nM.

In the case of `CCc1c(N2CCN(C(=O)c3ncnc(C)c3O)CC2)c(=O)c2nc(N3CCC3)cnc2n1CC(=O)Nc1ccc(C(F)(F)F)cc1Cl` [I-53, 2-(2-(azetidin-1-yl)-6-ethyl-7-(4-(5-hydroxy-6-methylpyrimidine-4-carbonyl)piperazin-1-yl)-8-oxopyrido[2,3-b]pyrazin-5(8H)-yl)-N-(2-chloro-4-(trifluoromethyl)phenyl)acetamide], the EC50 in test [1] was 0.5 to 2 µM. Further, the IC50 in test [2] lay in the range of 5 to 50 nM.

Regarding `CCc1c(N2CCN(C(=O)c3ncnc(C)c3O)CC2)c(=O)c2nc(C(=O)NC)cnc2n1CC(=O)Nc1ccc(C(F)(F)F)cc1Cl` [I-54, 5-(2-((2-chloro-4-(trifluoromethyl)phenyl)amino)-2-oxoethyl)-6-ethyl-7-(4-(5-hydroxy-6-methylpyrimidine-4-carbonyl)piperazin-1-yl)-N-methyl-8-oxo-5,8-dihydropyrido[2,3-b]pyrazine-2-carboxamide], the EC50 in test [1] is more than 5 µM. Moreover, the IC50 in test [2] lay in the range of 100 to 500 nM.

Take `CCc1c(N2CCN(C(=O)c3ncnc(C)c3O)CC2)c(=O)c2nc(/C=C/COC)cnc2n1CC(=O)Nc1ccc(C(F)(F)F)cc1Cl` [I-55, (E)-N-(2-chloro-4-(trifluoromethyl)phenyl)-2-(6-ethyl-7-(4-(5-hydroxy-6-methylpyrimidine-4-carbonyl)piperazin-1-yl)-2-(3-methoxyprop-1-en-1-yl)-8-oxopyrido[2,3-b]pyrazin-5(8H)-yl)acetamide]: the EC50 in test [1] lay in the range of 0.5 to 2 µM. For the same compound, the IC50 in test [2] was 5 to 50 nM.
